“And” between values parts separate entries of the source, which are not always exact repeats. Equal values may be shown once. Read-outs that look alike come from different tables or passages of the source.
Tests used:
[1] = test system: influenza virus A/Puerto Rico/8/1934 (H1N1); assay: Cytopathic effect (CPE) inhibition assay, H1N1; assay type: cell-based, influenza A/Puerto Rico/8/1934 (H1N1); settings: MDCK, 72 h, read-out: H1N1 IC50
[2] = oral dose 600 mg, bid, healthy volunteers; cited from earlier work
[3] = in vitro; settings: dog
[4] = in vitro; settings: rat, microsomes, pH 7.4, Microsome T1/2, Rat, rat liver microsomes, 1 μM
[5] = target: T1, aldehyde oxidase (AO) (Homo sapiens, UniProt Q06278); assay: AO-mediated metabolic stability in human liver cytosol with/without raloxifene; assay type: in vitro ADME; settings: for sensitivity to aldehyde oxidase (AO substrate or not): human liver cytosol, in words; for half-life at 1 μM: pooled liver (hepatocyte) cytosol, pH 7.4, human liver cytoplasm, read-out: Cytoplasm T1/2, Human
T1 construct: Human liver cytosolic protein was incubated with VX-787, comp; I, and comp; II; from tissue; host or cells: pooled human liver (hepatocyte) cytosol
T1 sequence (Q06278 1-1338): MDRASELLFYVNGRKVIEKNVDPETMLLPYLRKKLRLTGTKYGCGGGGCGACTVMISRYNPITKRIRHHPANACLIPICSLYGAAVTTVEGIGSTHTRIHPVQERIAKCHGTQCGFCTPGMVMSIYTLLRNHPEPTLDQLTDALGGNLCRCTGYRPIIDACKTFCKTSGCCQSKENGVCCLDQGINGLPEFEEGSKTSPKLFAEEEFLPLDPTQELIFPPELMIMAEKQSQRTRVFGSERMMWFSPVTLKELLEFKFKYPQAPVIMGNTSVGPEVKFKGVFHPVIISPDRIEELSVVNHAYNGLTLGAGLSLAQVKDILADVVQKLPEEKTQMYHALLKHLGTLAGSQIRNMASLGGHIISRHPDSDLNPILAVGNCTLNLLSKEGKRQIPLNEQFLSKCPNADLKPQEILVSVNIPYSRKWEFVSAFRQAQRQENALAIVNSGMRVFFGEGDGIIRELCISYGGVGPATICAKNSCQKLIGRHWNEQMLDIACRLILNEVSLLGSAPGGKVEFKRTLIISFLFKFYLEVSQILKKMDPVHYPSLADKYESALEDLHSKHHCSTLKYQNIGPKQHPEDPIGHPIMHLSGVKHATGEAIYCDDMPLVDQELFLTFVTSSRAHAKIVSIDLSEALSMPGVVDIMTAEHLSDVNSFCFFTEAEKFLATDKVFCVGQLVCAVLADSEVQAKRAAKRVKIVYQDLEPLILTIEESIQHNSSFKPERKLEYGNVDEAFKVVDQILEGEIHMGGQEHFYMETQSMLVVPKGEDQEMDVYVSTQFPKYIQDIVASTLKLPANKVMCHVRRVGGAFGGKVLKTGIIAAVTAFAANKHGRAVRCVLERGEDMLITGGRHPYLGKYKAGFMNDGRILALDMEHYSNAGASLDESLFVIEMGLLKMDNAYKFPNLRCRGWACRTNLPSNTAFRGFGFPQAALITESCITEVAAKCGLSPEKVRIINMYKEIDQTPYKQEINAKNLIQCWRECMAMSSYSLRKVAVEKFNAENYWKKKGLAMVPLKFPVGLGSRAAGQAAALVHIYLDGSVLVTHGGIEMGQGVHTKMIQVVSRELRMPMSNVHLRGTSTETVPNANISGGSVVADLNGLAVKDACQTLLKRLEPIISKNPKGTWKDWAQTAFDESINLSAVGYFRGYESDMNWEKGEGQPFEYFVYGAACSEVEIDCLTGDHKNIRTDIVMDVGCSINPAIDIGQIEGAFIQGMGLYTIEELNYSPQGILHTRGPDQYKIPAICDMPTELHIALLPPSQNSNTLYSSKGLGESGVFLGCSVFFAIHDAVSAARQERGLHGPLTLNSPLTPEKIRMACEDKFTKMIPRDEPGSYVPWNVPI

[6] = target: T2, influenza A/WSN/1933 (H1N1) PB2 CBD (aa.318-486) (Influenza A virus, UniProt P03427); assay: SPR competitive binding assay (Biacore T200)
T2 construct: influenza A/WSN/1933 (H1N1) PB2 CBD (aa.318-486); purchased
T2 sequence (P03427 318-486): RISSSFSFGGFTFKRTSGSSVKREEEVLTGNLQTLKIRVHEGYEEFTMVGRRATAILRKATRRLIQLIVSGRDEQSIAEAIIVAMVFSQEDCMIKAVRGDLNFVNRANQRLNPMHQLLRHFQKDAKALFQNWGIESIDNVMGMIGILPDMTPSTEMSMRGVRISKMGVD
Experimental: Biomolecular interaction analysis based on surface plasmon resonance (SPR) assays was performed using VX-787 and comp. I and II at concentrations ranging from 20 to 0.156 µM to investigate their competitive binding affinities with PB2 (Table 1).
Commercial companies express and purify HIN1 PB2 CBD protein, which provides influenza A/WSN/1933 (H1N1) PB2 CBD (aa.318-486). Using a Biacore T200 (GE Healthcare) and a running buffer of which contains a solution of 1 × PBS-P + 0.02 M phosphate buffer, 2.7 mM KCl, 0.137 M NaCl, and 0.05% Tween 20, H1N1 PB2 was immobilized to a level of 4900 response units (RUs). Serial dilutions of small molecules were injected, ranging in concentration from 20 µM to 0.156 µM. GE Healthcare’s Biacore Evaluation Software was used to fit the resulting data to the affinity binding model.

[7] = test system: influenza virus A/Hong Kong/8/68 (H3N2); assay: Cytopathic effect (CPE) inhibition assay, H3N2; assay type: cell-based, influenza A/Hong Kong/8/68 (H3N2); settings: MDCK cells, MOI 0.005, 72 h, CellTiter-Glo
[8] = in vitro; settings: human, microsomes, pH 7.4, Microsome T1/2, Human, human liver microsomes, 1 μM
[9] = test system: virus-free cells; parameters: method as in PMID 25547360; settings: incubated in virus-free cells; cited from earlier work
[10] = not given; remark: listed apart in the source
[11] = parameters: method as in PMID 32604406; settings: phase II clinical trial; cited from earlier work
[12] = test system: influenza virus; assay: CPE inhibition assay as summarised in the conclusions (strain not stated); assay type: cell-based; settings: unidentified influenza virus
[13] = not given; remark: listed apart in the source
[14] = with AO inhibitor raloxifene, 0 min
[15] = with AO inhibitor raloxifene, 15 min
[16] = with AO inhibitor raloxifene, 30 min
[17] = with AO inhibitor raloxifene, 60 min

Structure (SMILES): O=C(O)[C@H]1C2CCC(CC2)[C@@H]1Nc1nc(-c2c[nH]c3ncc(F)cc23)ncc1F [VX-787, pimodivir, reference compound]
- IC50 [1]: < 3 nM
- safety in phase I clinical trial [2]: no safety issues
- CC50 [3]: > 200000 nM
- Microsome Clh, Rat (rat liver microsomes): 1.72 mL/min/kg
- Residual percentage in rat liver microsome (with NADPH, 0 min): 99.99±0.99%
- Residual percentage in rat liver microsome (with NADPH, 5 min): 98.25±4.53%
- Residual percentage in rat liver microsome (with NADPH, 15 min): 95.80±0.68%
- Residual percentage in rat liver microsome (with NADPH, 30 min): 91.51±3.09%
- Residual percentage in rat liver microsome (with NADPH, 60 min): 88.79±2.11% and 88%
- Residual percentage in rat liver microsome (without NADPH, 0 min): 99.99±2.01%
- Residual percentage in rat liver microsome (without NADPH, 5 min): 109.05%
- Residual percentage in rat liver microsome (without NADPH, 15 min): 103.93%
- Residual percentage in rat liver microsome (without NADPH, 30 min): 100.41%
- Residual percentage in rat liver microsome (without NADPH, 60 min): 92.13±5.76%
- half-life [4]: 4.16 h
- sensitivity to aldehyde oxidase (AO substrate or not) [5]: indeed an AO substrate
- half-life at 1 μM [5]: 2.5 h
- Residual percentage in 0.5mg/ml human liver cytoplasm [5, 14]: 100.00±3.54%
- Residual percentage in 0.5mg/ml human liver cytoplasm [5, 15]: 100.65±7.76%
- Residual percentage in 0.5mg/ml human liver cytoplasm [5, 16]: 97.25±1.77%
- Residual percentage in 0.5mg/ml human liver cytoplasm ([5]; without raloxifene, 0 min): 100.00±7.65%
- Residual percentage in 0.5mg/ml human liver cytoplasm ([5]; without raloxifene, 15 min): 87.02±9.00%
- Residual percentage in 0.5mg/ml human liver cytoplasm ([5]; without raloxifene, 30 min): 90.17±9.31%
- Residual percentage in 0.5mg/ml human liver cytoplasm ([5]; without raloxifene, 60 min): 71.87±6.78% and 72%
- Kd ([6]; 20 to 0.156 µM, affinity binding model, read-out: SPR KD): 152 nM
- IC50 [7]: < 3 nM
- half-life [8]: 5.82 h
- cytotoxicity [9]: no cytotoxicity
- Microsome Clh, Human ([10]; human liver microsomes): 1.49 mL/min/kg
- Residual percentage in human liver microsome ([10]; with NADPH, 0 min): 99.99±4.23%
- Residual percentage in human liver microsome ([10]; with NADPH, 5 min): 103.84±1.21%
- Residual percentage in human liver microsome ([10]; with NADPH, 15 min): 91.56±7.20%
- Residual percentage in human liver microsome ([10]; with NADPH, 30 min): 101.85±8.49%
- Residual percentage in human liver microsome ([10]; with NADPH, 60 min): 89.33±8.96% and 89.33%
- Residual percentage in human liver microsome ([10]; without NADPH, 0 min): 100.00%
- Residual percentage in human liver microsome ([10]; without NADPH, 5 min): 110.26%
- Residual percentage in human liver microsome ([10]; without NADPH, 15 min): 100.78%
- Residual percentage in human liver microsome ([10]; without NADPH, 30 min): 113.32%
- Residual percentage in human liver microsome ([10]; without NADPH, 60 min): 107.81%
- adverse effects [11]: no serious adverse effects
- viral load in patients [11]: reduce the viral load

Structure (SMILES): O=C(O)C1C2CCC(CC2)C1Nc1nc(-n2c(=O)[nH]c3ncc(F)cc32)ncc1F [comp. I, (1R,2S,3S,4R)-3-((5-fluoro-2-(6-fluoro-2-oxo-2,3-dihydro-1H-imidazo[4,5-b]pyridin-1-yl)pyrimidin-4-yl)amino)bicyclo[2.2.2]octane-2-carboxylic acid]
- IC50 [1]: 70 ± 20 nM
- CC50 at 72 h [3]: > 200000 nM
- Residual percentage in rat liver microsome (rat, 0 min, 1 μM, pH 7.4): 100.00%
- Microsome Clh, Rat (rat, 1 μM, pH 7.4): 0.53 mL/min/kg
- half-life [4]: > 13.3 h
- sensitivity to aldehyde oxidase (AO substrate or not) [5]: remains as a substrate
- half-life at 1 μM [5]: > 13.3 h
- Residual percentage in 0.5mg/ml human liver cytoplasm [5, 14]: 100.00±3.87%
- Residual percentage in 0.5mg/ml human liver cytoplasm [5, 15]: 108.27±5.07%
- Residual percentage in 0.5mg/ml human liver cytoplasm [5, 16]: 102.66±4.43%
- Residual percentage in 0.5mg/ml human liver cytoplasm [5, 17]: 112.89±1.99%
- Residual percentage in 0.5mg/ml human liver cytoplasm ([5]; without raloxifene, 0 min): 100.00±6.12%
- Residual percentage in 0.5mg/ml human liver cytoplasm ([5]; without raloxifene, 15 min): 95.20±3.72%
- Residual percentage in 0.5mg/ml human liver cytoplasm ([5]; without raloxifene, 30 min): 99.98±8.74%
- Residual percentage in 0.5mg/ml human liver cytoplasm ([5]; without raloxifene, 60 min): 93%
- Residual percentage in 0.5mg/ml human liver cytoplasm ([5]; without raloxifene, 60 min, listed as Comp I): 93.52±8.82%
- EC50 [12]: 40 nM
- Kd [6]: 1400 nM
- IC50 [7]: 40 ± 10 nM
- half-life [8]: > 13.3 h

Structure (SMILES): N=c1[nH]c2ncc(F)cc2n1-c1ncc(F)c(NC2C3CCC(CC3)C2C(=O)O)n1 [comp. II, (1R,2S,3S,4R)-3-((2-(2-amino-6-fluoro-1H-imidazo[4,5-b]20yridine-1-yl)-5-fluoropyrimidin-4-yl)amino)bicyclo[2.2.2]octane-2-carboxylic acid]
- IC50 [1]: 90 ± 50 nM
- melting point [13]: 315 to 317 °C
- CC50 at 72 h [3]: > 200000 nM
- half-life [4]: > 13.3 h
- sensitivity to aldehyde oxidase (AO substrate or not) [5]: nearly unaffected
- half-life at 1 μM [5]: > 13.3 h
- Residual percentage in 0.5mg/ml human liver cytoplasm [5, 14]: 100.00±8.74%
- Residual percentage in 0.5mg/ml human liver cytoplasm [5, 15]: 110.60±4.82%
- Residual percentage in 0.5mg/ml human liver cytoplasm [5, 16]: 107.60±7.80%
- Residual percentage in 0.5mg/ml human liver cytoplasm [5, 17]: 109.12±6.67%
- Residual percentage in 0.5mg/ml human liver cytoplasm ([5]; without raloxifene, 0 min): 100.00±0.44%
- Residual percentage in 0.5mg/ml human liver cytoplasm ([5]; without raloxifene, 15 min): 107.07±16.04%
- Residual percentage in 0.5mg/ml human liver cytoplasm ([5]; without raloxifene, 30 min): 108.17±9.51%
- Residual percentage in 0.5mg/ml human liver cytoplasm ([5]; without raloxifene, 60 min): barely changed
- Residual percentage in 0.5mg/ml human liver cytoplasm ([5]; without raloxifene, 60 min, listed as Comp II): 103.11±2.84%
- EC50 [12]: 90 nM
- Kd [6]: 1670 nM
- IC50 [7]: 70 ± 30 nM
- half-life [8]: > 13.3 h
- Microsome Clh, Human ([10]; human, 1 μM, pH 7.4): 0.46 mL/min/kg
